# Experimental data reported in ChEMBL document CHEMBL5625274, “Improved synthesis, molecular modeling and anti-inflammatory activity of new fluorinated dihydrofurano-naphthoquinone compounds” (Bioorg Med Chem Lett, 2024).
# Where “and” joins values, the source holds several entries; their conditions need not be identical. Equal values may be shown once.
# System: not listed separately
# Test: in vitro
# Settings: mouse, RAW264.7 cells; at 8 µg/mL
row,SMILES,viability at 8 ug/mL
1,COc1cc(F)c([C@@H]2C3=C(O[C@H]2C(=O)c2ccccc2)C(=O)c2ccccc2C3=O)cc1F,59%
2,COc1ccc([C@@H]2C3=C(O[C@H]2C(=O)c2ccccc2)C(=O)c2ccccc2C3=O)c(F)c1,38%
3,COc1ccc([C@@H]2C3=C(O[C@H]2C(=O)c2ccccc2)C(=O)c2ccccc2C3=O)c(C(F)(F)F)c1,100%
4,O=C1C2=C(C(=O)c3ccccc31)[C@@H](c1ccc(O)cc1F)[C@H](C(=O)c1ccccc1)O2,19%
5,O=C1C2=C(C(=O)c3ccccc31)[C@@H](c1ccc(Oc3ccc(F)cc3)cc1)[C@H](C(=O)c1ccccc1)O2,99%
6,O=C1C2=C(C(=O)c3ccccc31)[C@@H](c1ccccc1F)[C@H](C(=O)c1ccccc1)O2,20%
7,COc1c(F)cc([C@@H]2C3=C(O[C@H]2C(=O)c2ccccc2)C(=O)c2ccccc2C3=O)cc1F,64%
8,O=C1C2=C(C(=O)c3ccccc31)[C@@H](c1ccc(O)c(F)c1)[C@H](C(=O)c1ccccc1)O2,41%
9,O=C1C2=C(C(=O)c3ccccc31)[C@@H](c1ccc(F)cc1)[C@H](C(=O)c1ccccc1)O2,69%
10,COc1ccc([C@@H]2C3=C(O[C@H]2C(=O)c2ccccc2)C(=O)c2ccccc2C3=O)cc1F,51%
11,O=C1C2=C(C(=O)c3ccccc31)[C@@H](c1ccc(OC(F)F)c(O)c1)[C@H](C(=O)c1ccccc1)O2,15%
12,O=C1C2=C(C(=O)c3ccccc31)[C@@H](c1ccc(OC(F)(F)F)cc1)[C@H](C(=O)c1ccccc1)O2,100%

# System: not listed separately
# Test: in vitro
# Settings: mouse, RAW264.7 cells; at 0.5 µg/mL
row,SMILES,viability at 0.5 ug/mL
1,COc1cc(F)c([C@@H]2C3=C(O[C@H]2C(=O)c2ccccc2)C(=O)c2ccccc2C3=O)cc1F,91%
2,COc1ccc([C@@H]2C3=C(O[C@H]2C(=O)c2ccccc2)C(=O)c2ccccc2C3=O)c(F)c1,100%
3,COc1ccc([C@@H]2C3=C(O[C@H]2C(=O)c2ccccc2)C(=O)c2ccccc2C3=O)c(C(F)(F)F)c1,100%
4,O=C1C2=C(C(=O)c3ccccc31)[C@@H](c1ccc(O)cc1F)[C@H](C(=O)c1ccccc1)O2,29%
5,O=C1C2=C(C(=O)c3ccccc31)[C@@H](c1ccc(Oc3ccc(F)cc3)cc1)[C@H](C(=O)c1ccccc1)O2,100%
6,O=C1C2=C(C(=O)c3ccccc31)[C@@H](c1ccccc1F)[C@H](C(=O)c1ccccc1)O2,81%
7,COc1c(F)cc([C@@H]2C3=C(O[C@H]2C(=O)c2ccccc2)C(=O)c2ccccc2C3=O)cc1F,85%
8,O=C1C2=C(C(=O)c3ccccc31)[C@@H](c1ccc(O)c(F)c1)[C@H](C(=O)c1ccccc1)O2,99%
9,O=C1C2=C(C(=O)c3ccccc31)[C@@H](c1ccc(F)cc1)[C@H](C(=O)c1ccccc1)O2,100%
10,COc1ccc([C@@H]2C3=C(O[C@H]2C(=O)c2ccccc2)C(=O)c2ccccc2C3=O)cc1F,71%
11,O=C1C2=C(C(=O)c3ccccc31)[C@@H](c1ccc(OC(F)F)c(O)c1)[C@H](C(=O)c1ccccc1)O2,71%
12,O=C1C2=C(C(=O)c3ccccc31)[C@@H](c1ccc(OC(F)(F)F)cc1)[C@H](C(=O)c1ccccc1)O2,100%

# System: RAW264.7
# Test: cells
# Settings: Mus musculus
row,IC50,SMILES
1,> 2900 nM,CCCCc1cc2c(o1)C(=O)c1ccccc1C2=O
2,< 2900 nM,Cc1cc2c(o1)C(=O)c1ccccc1C2=O
3,> 2900 nM,CCc1cc2c(o1)C(=O)c1ccccc1C2=O

# System: not listed separately
# Test: in vitro
# Settings: mouse, RAW264.7 cells; at 2 µg/mL
row,SMILES,viability at 2 ug/mL
1,COc1cc(F)c([C@@H]2C3=C(O[C@H]2C(=O)c2ccccc2)C(=O)c2ccccc2C3=O)cc1F,60%
2,COc1ccc([C@@H]2C3=C(O[C@H]2C(=O)c2ccccc2)C(=O)c2ccccc2C3=O)c(F)c1,40%
3,COc1ccc([C@@H]2C3=C(O[C@H]2C(=O)c2ccccc2)C(=O)c2ccccc2C3=O)c(C(F)(F)F)c1,100%
4,O=C1C2=C(C(=O)c3ccccc31)[C@@H](c1ccc(O)cc1F)[C@H](C(=O)c1ccccc1)O2,22%
5,O=C1C2=C(C(=O)c3ccccc31)[C@@H](c1ccc(Oc3ccc(F)cc3)cc1)[C@H](C(=O)c1ccccc1)O2,99%
6,O=C1C2=C(C(=O)c3ccccc31)[C@@H](c1ccccc1F)[C@H](C(=O)c1ccccc1)O2,32%
7,COc1c(F)cc([C@@H]2C3=C(O[C@H]2C(=O)c2ccccc2)C(=O)c2ccccc2C3=O)cc1F,67%
8,O=C1C2=C(C(=O)c3ccccc31)[C@@H](c1ccc(O)c(F)c1)[C@H](C(=O)c1ccccc1)O2,45%
9,O=C1C2=C(C(=O)c3ccccc31)[C@@H](c1ccc(F)cc1)[C@H](C(=O)c1ccccc1)O2,100%
10,COc1ccc([C@@H]2C3=C(O[C@H]2C(=O)c2ccccc2)C(=O)c2ccccc2C3=O)cc1F,60%
11,O=C1C2=C(C(=O)c3ccccc31)[C@@H](c1ccc(OC(F)F)c(O)c1)[C@H](C(=O)c1ccccc1)O2,46%
12,O=C1C2=C(C(=O)c3ccccc31)[C@@H](c1ccc(OC(F)(F)F)cc1)[C@H](C(=O)c1ccccc1)O2,100%

# System: RAW264.7
# Test: cells
# Settings: Mus musculus
# Remark: another data set of the same source
row,SMILES,IC50
1,COc1ccc([C@@H]2C3=C(O[C@H]2C(=O)c2ccccc2)C(=O)c2ccccc2C3=O)c(C(F)(F)F)c1,> 268 µM and > 128 µg/mL
2,O=C1C2=C(C(=O)c3ccccc31)[C@@H](c1ccc(Oc3ccc(F)cc3)cc1)[C@H](C(=O)c1ccccc1)O2,222 µM and 109 µg/mL
3,O=C1C2=C(C(=O)c3ccccc31)[C@@H](c1ccc(OC(F)(F)F)cc1)[C@H](C(=O)c1ccccc1)O2,> 276 µM and > 128 µg/mL

# Second part, the compound after the results:
row,IC50,SMILES
1,3.92 µM and 1.75 µg/mL,COc1cc(F)c([C@@H]2C3=C(O[C@H]2C(=O)c2ccccc2)C(=O)c2ccccc2C3=O)cc1F
2,3.52 µM and 1.57 µg/mL,COc1c(F)cc([C@@H]2C3=C(O[C@H]2C(=O)c2ccccc2)C(=O)c2ccccc2C3=O)cc1F
3,15.8 µM and 6.28 µg/mL,O=C1C2=C(C(=O)c3ccccc31)[C@@H](c1ccc(F)cc1)[C@H](C(=O)c1ccccc1)O2
4,1.54 µM and 0.66 µg/mL,COc1ccc([C@@H]2C3=C(O[C@H]2C(=O)c2ccccc2)C(=O)c2ccccc2C3=O)cc1F

# System: not listed separately
# Test: in vitro
# Settings: mouse, RAW264.7 cells; at 32 µg/mL
row,SMILES,viability at 32 ug/mL
1,COc1cc(F)c([C@@H]2C3=C(O[C@H]2C(=O)c2ccccc2)C(=O)c2ccccc2C3=O)cc1F,16%
2,COc1ccc([C@@H]2C3=C(O[C@H]2C(=O)c2ccccc2)C(=O)c2ccccc2C3=O)c(F)c1,35%
3,COc1ccc([C@@H]2C3=C(O[C@H]2C(=O)c2ccccc2)C(=O)c2ccccc2C3=O)c(C(F)(F)F)c1,100%
4,O=C1C2=C(C(=O)c3ccccc31)[C@@H](c1ccc(O)cc1F)[C@H](C(=O)c1ccccc1)O2,15%
5,O=C1C2=C(C(=O)c3ccccc31)[C@@H](c1ccc(Oc3ccc(F)cc3)cc1)[C@H](C(=O)c1ccccc1)O2,99%
6,O=C1C2=C(C(=O)c3ccccc31)[C@@H](c1ccccc1F)[C@H](C(=O)c1ccccc1)O2,15%
7,COc1c(F)cc([C@@H]2C3=C(O[C@H]2C(=O)c2ccccc2)C(=O)c2ccccc2C3=O)cc1F,51%
8,O=C1C2=C(C(=O)c3ccccc31)[C@@H](c1ccc(O)c(F)c1)[C@H](C(=O)c1ccccc1)O2,10%
9,O=C1C2=C(C(=O)c3ccccc31)[C@@H](c1ccc(F)cc1)[C@H](C(=O)c1ccccc1)O2,33%
10,COc1ccc([C@@H]2C3=C(O[C@H]2C(=O)c2ccccc2)C(=O)c2ccccc2C3=O)cc1F,41%
11,O=C1C2=C(C(=O)c3ccccc31)[C@@H](c1ccc(OC(F)F)c(O)c1)[C@H](C(=O)c1ccccc1)O2,5%
12,O=C1C2=C(C(=O)c3ccccc31)[C@@H](c1ccc(OC(F)(F)F)cc1)[C@H](C(=O)c1ccccc1)O2,70%

# Target: T1, Prostaglandin E synthase (Homo sapiens, UniProt O14684)
# T1 sequence (O14684 whole entry): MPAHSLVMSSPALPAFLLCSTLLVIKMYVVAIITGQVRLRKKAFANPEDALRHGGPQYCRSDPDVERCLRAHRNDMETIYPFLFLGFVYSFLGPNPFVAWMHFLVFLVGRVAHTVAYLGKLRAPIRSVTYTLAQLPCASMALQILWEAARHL
# Test: not given
# Settings: not given
row,Ki,SMILES
1,184000 nM,COc1cc(F)c([C@@H]2C3=C(O[C@H]2C(=O)c2ccccc2)C(=O)c2ccccc2C3=O)cc1F
2,241000 nM,COc1ccc([C@@H]2C3=C(O[C@H]2C(=O)c2ccccc2)C(=O)c2ccccc2C3=O)cc1F

# System: RAW264.7
# Test: cells
# Settings: Mus musculus
# Remark: another data set of the same source
row,IC50,SMILES
1,> 2900 nM,CCCCc1cc2c(o1)C(=O)c1ccccc1C2=O
2,< 2900 nM,Cc1cc2c(o1)C(=O)c1ccccc1C2=O
3,> 2900 nM,CCc1cc2c(o1)C(=O)c1ccccc1C2=O

# System: not listed separately
# Test: in vitro
# Settings: mouse, RAW264.7 cells
row,SMILES,viability at 128 ug/mL
1,COc1cc(F)c([C@@H]2C3=C(O[C@H]2C(=O)c2ccccc2)C(=O)c2ccccc2C3=O)cc1F,15%
2,COc1ccc([C@@H]2C3=C(O[C@H]2C(=O)c2ccccc2)C(=O)c2ccccc2C3=O)c(F)c1,23%
3,COc1ccc([C@@H]2C3=C(O[C@H]2C(=O)c2ccccc2)C(=O)c2ccccc2C3=O)c(C(F)(F)F)c1,40%
4,O=C1C2=C(C(=O)c3ccccc31)[C@@H](c1ccc(O)cc1F)[C@H](C(=O)c1ccccc1)O2,3%
5,O=C1C2=C(C(=O)c3ccccc31)[C@@H](c1ccc(Oc3ccc(F)cc3)cc1)[C@H](C(=O)c1ccccc1)O2,29%
6,O=C1C2=C(C(=O)c3ccccc31)[C@@H](c1ccccc1F)[C@H](C(=O)c1ccccc1)O2,0%
7,COc1c(F)cc([C@@H]2C3=C(O[C@H]2C(=O)c2ccccc2)C(=O)c2ccccc2C3=O)cc1F,22%
8,O=C1C2=C(C(=O)c3ccccc31)[C@@H](c1ccc(O)c(F)c1)[C@H](C(=O)c1ccccc1)O2,4%
9,O=C1C2=C(C(=O)c3ccccc31)[C@@H](c1ccc(F)cc1)[C@H](C(=O)c1ccccc1)O2,2%
10,COc1ccc([C@@H]2C3=C(O[C@H]2C(=O)c2ccccc2)C(=O)c2ccccc2C3=O)cc1F,38%
11,O=C1C2=C(C(=O)c3ccccc31)[C@@H](c1ccc(OC(F)F)c(O)c1)[C@H](C(=O)c1ccccc1)O2,2%
12,O=C1C2=C(C(=O)c3ccccc31)[C@@H](c1ccc(OC(F)(F)F)cc1)[C@H](C(=O)c1ccccc1)O2,34%
